These compounds were tested against human full-length MKNK1 (Homo sapiens (Human), UniProt Q9BUB5, T344D) (assay: MKNK1 kinase high ATP assay (TR-FRET)). Settings: not given.
Chain of human full-length MKNK1 (Q9BUB5 other isoform, or with tags, fused parts or gaps T344D): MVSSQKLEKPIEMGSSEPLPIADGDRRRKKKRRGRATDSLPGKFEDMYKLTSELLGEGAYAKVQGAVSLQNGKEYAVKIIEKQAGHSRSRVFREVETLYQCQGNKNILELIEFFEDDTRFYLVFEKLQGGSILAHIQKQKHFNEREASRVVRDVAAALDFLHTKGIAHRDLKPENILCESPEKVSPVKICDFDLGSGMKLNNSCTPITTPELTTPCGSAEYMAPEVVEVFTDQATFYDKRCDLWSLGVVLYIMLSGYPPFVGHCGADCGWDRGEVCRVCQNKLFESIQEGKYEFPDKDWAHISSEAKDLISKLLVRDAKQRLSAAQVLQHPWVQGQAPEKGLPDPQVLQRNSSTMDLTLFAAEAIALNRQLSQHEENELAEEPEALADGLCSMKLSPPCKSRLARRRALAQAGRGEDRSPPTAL
Assay type: biochemical
Protocol: MKNK1 Kinase High ATP Assay
MKNK1-inhibitory activity at high ATP of compounds of the present invention after their preincubation with MKNK1 was quantified employing the TR-FRET-based MKNK1 high ATP assay as described in the following paragraphs.
A recombinant fusion protein of Glutathione-S-Transferase (GST, N-terminally) and human full-length MKNK1 (amino acids 1-424 and T344D of accession number BAA 19885.1), expressed in insect cells using baculovirus expression system and purified via glutathione sepharose affinity chromatography, was purchased from Carna Biosciences (product no 02-145) and used as enzyme. As substrate for the kinase reaction the biotinylated peptide biotin-Ahx-IKKRKLTRRKSLKG (SEQ ID NO: 1, C-terminus in amide form) was used, which can be purchased e.g. from the company Biosyntan (Berlin-Buch, Germany).
For the assay 50 nL of a 100 fold concentrated solution of the test compound in DMSO was pipetted into a black low volume 384 well microtiter plate (Greiner Bio-One, Frickenhausen, Germany), 2 μL of a solution of MKNK1 in aqueous assay buffer [50 mM HEPES pH 7.5, 5 mM MgCl2, 1.0 mM dithiothreitol, 0.005% (v/v) Nonidet-P40 (Sigma)] was added and the mixture was incubated for 15 min at 22° C. to allow pre-binding of the test compounds to the enzyme before the start of the kinase reaction. Then the kinase reaction was started by the addition of 3 μL of a solution of adenosine-tri-phosphate (ATP, 3.3 mM=>final conc. in the 5 μL assay volume is 2 mM) and substrate (0.1 μM=>final conc. in the 5 μL assay volume is 0.06 μM) in assay buffer and the resulting mixture was incubated for a reaction time of 30 min at 22° C. The concentration of MKNK1 was adjusted depending of the activity of the enzyme lot and was chosen appropriate to have the assay in the linear range, typical concentrations were in the range of 0.003 μg/mL. The reaction was stopped by the addition of 5 μL of a solution of TR-FRET detection reagents (5 nM streptavidine-XL665 [Cisbio Bioassays, Codolet, France] and 1 nM anti-ribosomal protein S6 (pSer236)-antibody from Invitrogen [#44921G] and 1 nM LANCE EU-W1024 labeled ProteinG [Perkin-Elmer, product no. AD0071]) in an aqueous EDTA-solution (100 mM EDTA, 0.1% (w/v) bovine serum albumin in 50 mM HEPES pH 7.5).
The resulting mixture was incubated for 1 h at 22° C. to allow the formation of complex between the phosphorylated biotinylated peptide and the detection reagents. Subsequently the amount of phosphorylated substrate was evaluated by measurement of the resonance energy transfer from the Eu-chelate to the streptavidine-XL. Therefore, the fluorescence emissions at 620 nm and 665 nm after excitation at 350 nm were measured in a TR-FRET reader, e.g. a Rubystar (BMG Labtechnologies, Offenburg, Germany) or a Viewlux (Perkin-Elmer). The ratio of the emissions at 665 nm and at […] was taken as the measure for the amount of phosphorylated substrate. The data were normalised (enzyme reaction without inhibitor=0% inhibition, all other assay components but no enzyme=100% inhibition).
In the case of `O=C1CCN(C(=O)[C@H]2CCc3c(sc4ncnc(Nc5ccn6nccc6c5)c34)C2)CC1` [Example 33, 1-{[(7S)-4-(Pyrazolo[1,5-a]pyridin-5-ylamino)-5,6,7,8-tetrahydro[1]benzothieno[2,3-d]pyrimidin-7-yl]carbonyl}piperidin-4-one], the IC50 is reported as 96 nM.

Same assay, conditions: high ATP (2 mM), 15 min preincubation with enzyme; read-out: MKNK1 IC50
`CN(C)C(=O)CN(C)C(=O)[C@H]1CCc2c(sc3ncnc(Nc4ccn5nccc5c4)c23)C1` [Example 26, (7S)—N-[2-(Dimethylamino)-2-oxoethyl]-N-methyl-4-(pyrazolo[1,5-a]pyridin-5-ylamino)-5,6,7,8-tetrahydro[1]benzothieno[2,3-d]pyrimidine-7-carboxamide] gave an IC50 of 14 nM.
For `CN(C)C1CN(C(=O)[C@H]2CCc3c(sc4ncnc(Nc5ccn6nccc6c5)c34)C2)C1` [Example 28, [3-(Dimethylamino)azetidin-1-yl][(7S)-4-(pyrazolo[1,5-a]pyridin-5-ylamino)-5,6,7,8-tetrahydro[1]benzothieno[2,3-d]pyrimidin-7-yl]methanone], the IC50 was 19 nM.
`CN1CCN(C(=O)[C@H]2CCc3c(sc4ncnc(Nc5ccn6nccc6c5)c34)C2)CC1` [Example 29, (4-Methylpiperazin-1-yl)[(7S)-4-(pyrazolo[1,5-a]pyridin-5-ylamino)-5,6,7,8-tetrahydro[1]benzothieno[2,3-d]pyrimidin-7-yl]methanone] gave an IC50 of 20 nM.
With `CC1(O)CN(C(=O)[C@H]2CCc3c(sc4ncnc(Nc5ccn6nccc6c5)c34)C2)C1` [Example 30, (3-Hydroxy-3-methylazetidin-1-yl)[(7S)-4-(pyrazolo[1,5-a]pyridin-5-ylamino)-5,6,7,8-tetrahydro[1]benzothieno[2,3-d]pyrimidin-7-yl]methanone] the IC50 was 16 nM.
For `CN(C)CCN1CCN(C(=O)[C@H]2CCc3c(sc4ncnc(Nc5ccn6nccc6c5)c34)C2)CC1` [Example 31, {4-[2-(Dimethylamino)ethyl]piperazin-1-yl}[(7S)-4-(pyrazolo[1,5-a]pyridin-5-ylamino)-5,6,7,8-tetrahydro[1]benzothieno[2,3-d]pyrimidin-7-yl]methanone], the IC50 was 26 nM.
With `O=C([C@H]1CCc2c(sc3ncnc(Nc4ccn5nccc5c4)c23)C1)N1CCC(F)(F)C1` [Example 34, (3,3-Difluoropyrrolidin-1-yl)[(7S)-4-(pyrazolo[1,5-a]pyridin-5-ylamino)-5,6,7,8-tetrahydro[1]benzothieno[2,3-d]pyrimidin-7-yl]methanone] the IC50 was 71 nM.
`O=C([C@H]1CCc2c(sc3ncnc(Nc4ccn5nccc5c4)c23)C1)N1CC2(COC2)C1` [Example 35, 2-Oxa-6-azaspiro[3.3]hept-6-yl[(7S)-4-(pyrazolo[1,5-a]pyridin-5-ylamino)-5,6,7,8-tetrahydro[1]benzothieno[2,3-d]pyrimidin-7-yl]methanone] showed an IC50 of 75 nM.
`O=C([C@H]1CCc2c(sc3ncnc(Nc4ccn5nccc5c4)c23)C1)N1C[C@@H]2C[C@H]1CO2` [Example 36, (1S,4S)-2-Oxa-5-azabicyclo[2.2.1]hept-5-yl[(7S)-4-(pyrazolo[1,5-a]pyridin-5-ylamino)-5,6,7,8-tetrahydro[1]benzothieno[2,3-d]pyrimidin-7-yl]methanone] gave an IC50 of 91 nM.
Work on `O=C([C@H]1CCc2c(sc3ncnc(Nc4ccn5nccc5c4)c23)C1)N1C[C@H]2C[C@@H]1CO2` [Example 37, (1R,4R)-2-Oxa-5-azabicyclo[2.2.1]hept-5-yl[(7S)-4-(pyrazolo[1,5-a]pyridin-5-ylamino)-5,6,7,8-tetrahydro[1]benzothieno[2,3-d]pyrimidin-7-yl]methanone] yielded an IC50 of 56 nM.
Work on `CN1C[C@@H]2C[C@H]1CN2C(=O)[C@H]1CCc2c(sc3ncnc(Nc4ccn5nccc5c4)c23)C1` [Example 38, [(1S,4S)-5-Methyl-2,5-diazabicyclo[2.2.1]hept-2-yl][(7S)-4-(pyrazolo[1,5-a]pyridin-5-ylamino)-5,6,7,8-tetrahydro[1]benzothieno[2,3-d]pyrimidin-7-yl]methanone] yielded an IC50 of 25 nM.
`CN(C)CCN(C)C1CCN(C(=O)[C@H]2CCc3c(sc4ncnc(Nc5ccn6nccc6c5)c34)C2)CC1` [Example 40, (4-{[2-(Dimethylamino)ethyl](methyl)amino}piperidin-1-yl)[(7S)-4-(pyrazolo[1,5-a]pyridin-5-ylamino)-5,6,7,8-tetrahydro[1]benzothieno[2,3-d]pyrimidin-7-yl]methanone] showed an IC50 of 6 nM.
Compound `CN1C[C@H]2C[C@@H]1CN2C(=O)[C@H]1CCc2c(sc3ncnc(Nc4ccn5nccc5c4)c23)C1` [Example 42, [(1R,4R)-5-Methyl-2,5-diazabicyclo[2.2.1]hept-2-yl][(7S)-4-(pyrazolo[1,5-a]pyridin-5-ylamino)-5,6,7,8-tetrahydro[1]benzothieno[2,3-d]pyrimidin-7-yl]methanone] has an IC50 of 11 nM.
Compound `O=C(NCCC(F)(F)F)[C@H]1CCc2c(sc3ncnc(Nc4cc5ccnn5cc4Cl)c23)C1` [Example 43, (7S)-4-[(6-Chloropyrazolo[1,5-a]pyridin-5-yl)amino]-N-(3,3,3-trifluoropropyl)-5,6,7,8-tetrahydro[1]benzothieno[2,3-d]pyrimidine-7-carboxamide] has an IC50 of 35 nM.
In the case of `CC(C)NC(=O)[C@H]1CCc2c(sc3ncnc(Nc4cc5ccnn5cc4Cl)c23)C1` [Example 44, (7S)-4-[(6-Chloropyrazolo[1,5-a]pyridin-5-yl)amino]-N-(propan-2-yl)-5,6,7,8-tetrahydro[1]benzothieno[2,3-d]pyrimidine-7-carboxamide], the IC50 is reported as 54 nM.
Work on `CN(C)C(=O)[C@H]1CCc2c(sc3ncnc(Nc4cc5ccnn5cc4Cl)c23)C1` [Example 45, (7S)-4-[(6-Chloropyrazolo[1,5-a]pyridin-5-yl)amino]-N,N-dimethyl-5,6,7,8-tetrahydro[1]benzothieno[2,3-d]pyrimidine-7-carboxamide] yielded an IC50 of 12 nM.
For `CCN(C)C(=O)[C@H]1CCc2c(sc3ncnc(Nc4cc5ccnn5cc4Cl)c23)C1` [Example 46, (7S)-4-[(6-Chloropyrazolo[1,5-a]pyridin-5-yl)amino]-N-ethyl-N-methyl-5,6,7,8-tetrahydro[1]benzothieno[2,3-d]pyrimidine-7-carboxamide], the IC50 was 11 nM.
`CN(CC(F)F)C(=O)[C@H]1CCc2c(sc3ncnc(Nc4cc5ccnn5cc4Cl)c23)C1` [Example 47, (7S)-4-[(6-Chloropyrazolo[1,5-a]pyridin-5-yl)amino]-N-(2,2-difluoroethyl)-N-methyl-5,6,7,8-tetrahydro[1]benzothieno[2,3-d]pyrimidine-7-carboxamide] showed an IC50 of 18 nM.
With `CN(CCC(F)(F)F)C(=O)[C@H]1CCc2c(sc3ncnc(Nc4cc5ccnn5cc4Cl)c23)C1` [Example 48, (7S)-4-[(6-Chloropyrazolo[1,5-a]pyridin-5-yl)amino]-N-methyl-N-(3,3,3-trifluoropropyl)-5,6,7,8-tetrahydro[1]benzothieno[2,3-d]pyrimidine-7-carboxamide] the IC50 was 35 nM.
`CCCCN(C)C(=O)[C@H]1CCc2c(sc3ncnc(Nc4cc5ccnn5cc4Cl)c23)C1` [Example 49, (7S)—N-Butyl-4-[(6-chloropyrazolo[1,5-a]pyridin-5-yl)amino]-N-methyl-5,6,7,8-tetrahydro[1]benzothieno[2,3-d]pyrimidine-7-carboxamide] gave an IC50 of 15 nM.
In the case of `N#CC1CN(C(=O)[C@H]2CCc3c(sc4ncnc(Nc5cc6ccnn6cc5Cl)c34)C2)C1` [Example 50, 1-((7S)-4-[(6-Chloropyrazolo[1,5-a]pyridin-5-yl)amino]-5,6,7,8-tetrahydro[1]benzothieno[2,3-d]pyrimidin-7-ylcarbonyl)azetidine-3-carbonitrile], the IC50 is reported as 7 nM.
In the case of `CC1(O)CN(C(=O)[C@H]2CCc3c(sc4ncnc(Nc5cc6ccnn6cc5Cl)c34)C2)C1` [Example 52, (7S)-4-[(6-Chloropyrazolo[1,5-a]pyridin-5-yl)amino]-5,6,7,8-tetrahydro[1]benzothieno[2,3-d]pyrimidin-7-yl(3-hydroxy-3-methylazetidin-1-yl)methanone], the IC50 is reported as 8 nM.
`CN(CCO)C(=O)[C@H]1CCc2c(sc3ncnc(Nc4cc5ccnn5cc4Cl)c23)C1` [Example 55, (7S)-4-[(6-Chloropyrazolo[1,5-a]pyridin-5-yl)amino]-N-(2-hydroxyethyl)-N-methyl-5,6,7,8-tetrahydro[1]benzothieno[2,3-d]pyrimidine-7-carboxamide] gave an IC50 of 18 nM.

Reference: patent publication US10487092B2, “Pyrazolopyridinamines as MKNK1 and MKNK2 inhibitors” (BAYER PHARMA AKTIENGESELLSCHAFT, priority 2014, dated 2019)
